Consider one molecule from PMC6442119, “The antitumor activity of CYB-L10, a human topoisomerase IB catalytic inhibitor” (Journal of Enzyme Inhibition and Medicinal Chemistry, 2019).

Series [1] concerns 60 human clinical cancer cell lines (NCI60). Kind of series: NCI60 assay, mean-graph midpoint. The series is classed as cell-based. As to conditions: NCI60, 48 h. As to the method:
CYB-L10 was tested using the protocols by the NCI, which has been described previously. […] The overall antiproliferative potential is quantified as a mean-graph midpoint (MGM). […] It was selected and submitted to National Cancer Institute (NCI, USA) for a developmental therapeutics assay against the 60 clinical tumor cell lines representing nine tissue types (NCI60)[23–25]. The tumor cells were incubated with CYB-L10 for 48 h and stained with sulphorhodamine B dye. Cell growth inhibition (GI50) was calculated relative to the control without compound.

In the next series the test system is MCF-7/ADR. As to the kind of experiment: MTT assay. The series is classed as cell-based, human.
In a further series the test system is HepG2. Kind of series: MTT assay. The series is classed as cell-based. As to conditions: Homo sapiens; Parental cell line HepG2, MTT, 72 h. On the technique in general: Tetrazolium assays rely on reduction of a dye to a coloured formazan, in cell work by metabolically active cells.
For a further series, the system named is TOP1. Details: method as in PMID 26188908. As to conditions: compared with CPT; cited from earlier work.
In the next series the test system is HCT116 xenograft. Kind of series: In vivo antitumor activity, HCT116 xenograft. Details: species or system nude mice. As to conditions: for tumor weight inhibition (TWI): HCT116 xenograft nude mice. The procedure: Athymic nude mice bearing the nu/nu gene were obtained from Laboratory Animal Center of Sun Yat-sen University and maintained in pathogen-free conditions to establish the model of xenografts of HCT116. All animals were used under the Policy on the Care and Use of Laboratory Animal of Sun Yat-sen University. Male nude mice 4–5 weeks old weighing 12–15 g were used. HCT116 tumor preinduced in the mice by subcutaneously injecting of HCT116 cells (100 µL, 1 × 10^7 cells) was implanted. When the implanted tumors had reached a volume of about 80 mm^3, the mice were randomly divided into three groups (n = 5) and administered by i.p. injection at a frequency of once every 3 days. The testing groups were treated with CYB-L10 at 20 mg/kg and 6.7 mg/kg dose, respectively. The control group was treated with an equivalent volume of saline. Tumor volumes (V) were monitored by caliper measurement of the length and width, and calculated using the formula: V = (larger diameter) × (smaller diameter)^2/2, and growth curves were plotted using average tumor volume within each experimental group at the set time points. At the end of treatment, the animals were sacrificed, and the tumors were removed and weighed. The tumor weight inhibition (TWI) was calculated according to the formula: TWI = (1 − Mean tumor weight of the experimental group/Mean tumor weight of the control group) × 100%. Statistical comparisons were conducted using a one-way analysis of variance, followed by Tukey’s test.
A human colon cancer HCT116 xenograft nude mice model was established to evaluate the antitumor efficiency of CYB-L10 in vivo. Mice were randomly divided into three groups and administered i.p. injection at a frequency of once every 3 days. Two groups were treated with CYB-L10 at 20 mg/kg and 6.7 mg/kg dose, respectively. The negative control group was treated with an equivalent volume of saline.

The subject of another series is HCT116. As to the kind of experiment: MTT assay. As to conditions: Homo sapiens, HCT-116; Parental cell line HCT116, MTT, 72 h. The format is cell-based.
The next series concerns TOP2. As to the kind of experiment: TOP2-mediated relaxation assay. The series is classed as biochemical. As to conditions: 25 μM, relaxation of supercoiled pBR322 DNA. The procedure: Figure S1. TOP2-mediated relaxation assay. Lane 1, supercoiled pBR322 DNA alone; Lane 2, DNA
and enzyme; Lanes 3, DNA, enzyme and the positive control etoposide (VP16) at 25 μM; Lanes 4,
DNA, enzyme and CYB-L10 at 25 μM. R: relaxed DNA. Sc: supercoiled DNA.
(1 picture or pasted object on this page, not shown here)

A further series relates to HepG2/ADR. Kind of series: MTT assay. The series is classed as cell-based, human.
The next series concerns the target P-glycoprotein (Pgp) (Homo sapiens, UniProt P08183). Kind of series: Pgp substrate assessment in Pgp-overexpressing resistant sublines. Particulars: from MCF-7/ADR and HepG2/ADR sublines with overexpressed Pgp.
A further series concerns RC0.1. Kind of series: MTT assay.
In a further series the test system is HCT116 cells. As to the kind of experiment: Apoptosis analysis, flow cytometry annexin V-FITC/PI. The format is cell-based, human. As to conditions: 9 μM, 24 h. As to the method:
HCT116 cells (3.0 × 10^5 cells/mL) were grown in culture medium on 6-well plates and incubated in the presence or absence of CYB-L10 (1, 3, and 9 µM) for 24 h. And then, the cells were harvested and washed with cold PBS buffer, resuspended in 1 × binding buffer, and then stained with 5 µL Annexin V-FITC and 5 µL propidium iodide (KeyGEN BioTECH, Nanjing, China) for 15 min in dark. The stained cells were analyzed by using flow cytometry (BD, FACSCalibur, Franklin Lakes, NJ, USA) within 1 h. The experiments were repeated independently for three times.
To estimate the effect of CYB-L10 on apoptosis, flow cytometry analysis using double staining with annexin V-FITC/PI was carried out for HCT116 cells. […] CYB-L10 induced the major population of HCT116 cells into the late apoptotic stage 47.39% at 9 μM concentration.
A general note: A flow cytometer gives signals particle by particle.

The test system of a further series is HCT116-siTop1. Kind of series: MTT assay. As to conditions: Homo sapiens; Resistant subline HCT116-siTop1, MTT, 72 h. The series is classed as cell-based.
In a further series the test system is DU-145. Kind of series: MTT assay. The series is classed as cell-based. As to conditions: Homo sapiens; Parental cell line DU-145, MTT, 72 h.
For the next series, the system named is HL-60 (TB). As to the kind of experiment: NCI60 assay. As to conditions: Homo sapiens, Leukemia, 48 h. The format is cell-based. The procedure:
The NCI60 (National Cancer Institute 60) tumor cell drug discovery panel was developed as a tool to assess the anticancer activity of compounds against a range of cell lines derived from nine cancer cell types, including hematological malignancies, lung, central nervous system, melanoma, colorectal, renal, breast, ovarian, and prostate[18]^,[23]^,[24]. CYB-L10 was tested using the protocols by the NCI, which has been described previously. […] The overall antiproliferative potential is quantified as a mean-graph midpoint (MGM).
It was selected and submitted to National Cancer Institute (NCI, USA) for a developmental therapeutics assay against the 60 clinical tumor cell lines representing nine tissue types (NCI60)[23–25]. The tumor cells were incubated with CYB-L10 for 48 h and stained with sulphorhodamine B dye. Cell growth inhibition (GI50) was calculated relative to the control without compound.

“Also recorded” adds a separate entry of the source.

P-glycoprotein (Pgp), sequence (P08183 whole entry): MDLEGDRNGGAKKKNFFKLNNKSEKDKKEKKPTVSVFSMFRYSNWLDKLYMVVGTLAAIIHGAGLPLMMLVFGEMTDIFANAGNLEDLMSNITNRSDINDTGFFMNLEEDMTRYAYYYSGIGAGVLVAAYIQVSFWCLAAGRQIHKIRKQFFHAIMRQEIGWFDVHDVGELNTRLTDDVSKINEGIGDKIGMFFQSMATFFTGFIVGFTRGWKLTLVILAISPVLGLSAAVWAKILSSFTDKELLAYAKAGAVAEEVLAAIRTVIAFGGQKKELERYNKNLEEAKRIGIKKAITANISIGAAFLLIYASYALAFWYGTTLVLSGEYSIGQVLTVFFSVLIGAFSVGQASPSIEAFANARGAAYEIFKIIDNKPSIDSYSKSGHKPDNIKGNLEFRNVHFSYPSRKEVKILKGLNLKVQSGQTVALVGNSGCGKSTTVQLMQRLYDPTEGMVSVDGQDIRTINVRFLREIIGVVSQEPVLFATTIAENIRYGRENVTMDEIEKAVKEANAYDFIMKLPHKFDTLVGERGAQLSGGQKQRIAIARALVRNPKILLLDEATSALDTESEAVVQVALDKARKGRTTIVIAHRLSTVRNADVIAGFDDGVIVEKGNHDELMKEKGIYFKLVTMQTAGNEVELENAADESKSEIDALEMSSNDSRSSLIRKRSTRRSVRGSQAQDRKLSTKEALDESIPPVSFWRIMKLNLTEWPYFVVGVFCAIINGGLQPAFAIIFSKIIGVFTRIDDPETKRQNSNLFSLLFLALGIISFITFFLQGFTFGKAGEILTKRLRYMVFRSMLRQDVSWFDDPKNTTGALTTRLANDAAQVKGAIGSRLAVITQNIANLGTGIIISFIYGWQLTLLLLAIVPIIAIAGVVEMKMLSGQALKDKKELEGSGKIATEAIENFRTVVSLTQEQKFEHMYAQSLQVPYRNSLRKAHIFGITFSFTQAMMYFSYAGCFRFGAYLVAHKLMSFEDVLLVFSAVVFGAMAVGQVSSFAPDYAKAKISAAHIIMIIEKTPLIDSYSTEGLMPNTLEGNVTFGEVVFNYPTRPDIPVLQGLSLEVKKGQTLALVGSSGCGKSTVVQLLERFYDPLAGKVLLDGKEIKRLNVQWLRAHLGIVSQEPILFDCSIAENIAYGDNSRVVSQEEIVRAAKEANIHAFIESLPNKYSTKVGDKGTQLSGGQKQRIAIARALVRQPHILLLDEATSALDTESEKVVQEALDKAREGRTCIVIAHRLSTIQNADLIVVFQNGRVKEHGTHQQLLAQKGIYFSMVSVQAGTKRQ

The GI50 is the concentration that inhibits growth by half. For `O=C1c2cccnc2C(=O)c2c1c(C(=O)OCCN1CCOCC1)c1ccccn21` [CYB-L10], in series [1], the “MGM (mean graph midpoint for growth inhibition of all human cancer cell lines)” value was determined as 0.050 µM. Further, the Resistance ratio with MCF-7/ADR (GI50 MCF-7/ADR / GI50 MCF-7) was 6.6; in the series on HepG2/ADR (GI50 HepG2/ADR / GI50 HepG2) it was 11.4; with RC0.1 (GI50 RC0.1 / GI50 DU-145) it was 40.6. The 50% growth inhibitory concentration (GI50) in the series with MCF-7/ADR (Homo sapiens, NCI/ADR-RES, Resistant subline MCF-7/ADR, MTT, 72 h) was 600 ± 210 nM; in the series on HepG2 it was 65 ± 30 nM; in the series with HCT116, 27 ± 24 nM; in the series with HepG2/ADR (Homo sapiens, Resistant subline HepG2/ADR, MTT, 72 h), 740 ± 240 nM; with RC0.1 (Homo sapiens, 72 h, read-out: GI50 ± SD), 650 ± 10 nM; in the series with HCT116-siTop1 it was 190 ± 92 nM. For the same molecule, the results for the 50% growth inhibitory concentration (GI50) in the series on DU-145 and in the series on HL-60 (TB) were 16 ± 10 nM and 240 nM, respectively. In addition, in the series on TOP1, the TOP1 inhibition result is reported as “higher TOP1 inhibition than CPT”. Besides, the “tumor weight inhibition (TWI)” value in the series with HCT116 xenograft (6.7 mg/kg i.p. once every 3 days) is given as 27.6%; in the series with HCT116 xenograft (20 mg/kg i.p. once every 3 days, p < 0.05), 38.3%. The “body weight of the mice” value in the series on HCT116 xenograft (20 and 6.7 mg/kg i.p., vs negative control) is on record as “no obvious loss”. Moreover, in the series with HCT116 xenograft (20 and 6.7 mg/kg i.p., vs negative control, dose-dependent), the tumor volume result is “obviously reduced the tumor volume”. In addition, in the series with TOP2, the “inhibition against TOP2” value is “very weak inhibition”. Moreover, the “substrate of the Pgp” value on P-glycoprotein (Pgp) is “not a substrate of the P-glycoprotein; also recorded: not to be a substrate of the Pgp”. For the same molecule, in the series on HCT116 cells, the “A2 quadrant cells (late apoptotic stage)” value worked out at 47.39%.
